Source: paper PMC10247784, “Physiological activation of human and mouse bitter taste receptors by bile acids” (Communications Biology, 2023)

Test system: HEK293T-Gα16gust44 cells transfected with empty vector (mock)
Test: Calcium imaging assay (FLIPR), empty vector control (mock)
Type: cell-based
Procedure: This set of bile acids was chosen because of their commercial availability in high purities, their diversity within the class of bile acids and their previous detection and quantitation in human blood. Stock solutions were prepared in DMSO.
As basal growth medium for the HEK293T-Gα16gust44 cell line[17],[59] served Dulbecco’s modified eagle medium (DMEM) (Thermo Fisher Scientific, Darmstadt, Germany) supplemented with 10 % fetal bovine serum (Sigma-Aldrich, Steinheim, Germany), 2 mM L-glutamine (Sigma-Aldrich, Steinheim, Germany), 100 units/ml penicillin (Sigma Aldrich, Steinheim, Germany) and 100 µg/ml streptomycin (Sigma Aldrich, Steinheim, Germany). Growth conditions were 37 °C, 5 % CO2 and saturated air-humidity[60].
HEK293T-Gα16gust44 cells were seeded on poly-D-lysine (10 µg/ml) coated 96-well plates to reach a confluence of 40-60 % the next day. For transient transfection 150 ng of plasmid DNA containing the receptor of interest and 0.3 µl lipofectamine 2000 (Thermo Fisher Scientific, Darmstadt, Germany) per well were used and transfection took place according to the manual of lipofectamine 2000. […] The empty vector DNA (mock) was transfected as negative control[14],[41].
Cells were loaded using the calcium-sensitive fluorescent dye Fluo-4-AM (Abcam, Cambridge, Great Britain) in the presence of 2.5 mM probenecid (Sigma-Aldrich, Steinheim, Germany) the day after transfection[13],[41]. 1 h after loading, cells were washed with C1 buffer using a BioTek Cell Washer, incubated in the dark for half an hour and washed again. For automated agonist application and measurement of fluorescence changes, a FLIPR^TETRA device (Molecular Devices, San José, United States) was used. Viability of cells was tested by application of 100 nM Somatostatin 14 (Bachem, Bubendorf, Switzerland)[42].
Measured data were negative control corrected by subtracting the signal of the mock-transfected cells and exported to Microsoft Excel using the FLIPR software ScreenWorks 4.2. In Microsoft Excel software, standardization of maximum fluorescence intensities to the basal fluorescence and normalization to the buffer-only control was done to calculate the relative fluorescence changes (ΔF/F).
Initial screening experiments performed in duplicate wells were confirmed by at least one replication and representative traces were selected for display. All dose-response relationships were determined by three independent experiments (biological replicates) performed in duplicates (technical replicates). Threshold concentrations, defined as lowest substance concentrations leading to statistically significant elevated fluorescence changes in receptor-transfected cells compared with empty vector-transfected cells, were determined using SigmaPlot with Student’s t-test to evaluate statistical significance (p < 0.01).

[1] = Mock, sheet TAS2R14, conc. 0,01 mM
[2] = Mock, sheet TAS2R14, conc. 0,03 mM
[3] = Mock, sheet TAS2R14, conc. 0,001 mM
[4] = Mock, sheet TAS2R14, conc. 0,003 mM
[5] = conc. 0,01 mM, Mock (sheet TAS2R1)
[6] = conc. 0,001 mM, Mock (sheet TAS2R1)
[7] = conc. 0,003 mM, Mock (sheet TAS2R1)

## C[C@H](CCC(=O)NCC(=O)O)[C@H]1CC[C@H]2[C@@H]3[C@H](O)C[C@@H]4C[C@H](O)CC[C@]4(C)[C@H]3C[C@H](O)[C@]12C [Glycocholic Acid, glycocholic acid]
Conc. 0,01 mM, Mock (sheet TAS2R39)
  Δ F/F: -0.01548
Conc. 0,1 mM, Mock (sheet TAS2R39)
  Δ F/F: -0.02609
Conc. 0,03 mM, Mock (sheet TAS2R39)
  Δ F/F: -0.02235
Conc. 0,3 mM, Mock (sheet TAS2R39)
  Δ F/F: -0.04919
Conc. 0,001 mM, Mock (sheet TAS2R39)
  Δ F/F: -0.01811
Conc. 1 mM, Mock (sheet TAS2R39)
  Δ F/F: -0.07251
Conc. 0,003 mM, Mock (sheet TAS2R39)
  Δ F/F: -0.02014
Mock (sheet Tas2r123), conc. 0,01 mM
  Δ F/F: -0.001257
Mock (sheet Tas2r123), conc. 0,1 mM
  Δ F/F: -0.001605
Mock (sheet Tas2r123), conc. 0,03 mM
  Δ F/F: -0.001376
Mock (sheet Tas2r123), conc. 0,3 mM
  Δ F/F: 0.0005119
Mock (sheet Tas2r123), conc. 0,001 mM
  Δ F/F: -0.001339
Mock (sheet Tas2r123), conc. 0,003 mM
  Δ F/F: -0.001948
Mock (sheet Tas2r126), conc. 0,01 mM
  Δ F/F: -0.0096
Mock (sheet Tas2r126), conc. 0,1 mM
  Δ F/F: -0.02403
Mock (sheet Tas2r126), conc. 0,03 mM
  Δ F/F: -0.01217
Mock (sheet Tas2r126), conc. 0,3 mM
  Δ F/F: -0.03338
Mock (sheet Tas2r126), conc. 0,001 mM
  Δ F/F: -0.01229
Mock (sheet Tas2r126), conc. 1 mM
  Δ F/F: -0.06654
Mock (sheet Tas2r126), conc. 0,003 mM
  Δ F/F: -0.01228
Mock (sheet Tas2r144), conc. 0,01 mM
  Δ F/F: 0.0008421
Mock (sheet Tas2r144), conc. 0,1 mM
  Δ F/F: 0.001148
Mock (sheet Tas2r144), conc. 0,03 mM
  Δ F/F: -3.983e-5
Mock (sheet Tas2r144), conc. 0,3 mM
  Δ F/F: 0.0006824
Mock (sheet Tas2r144), conc. 0,003 mM
  Δ F/F: 0.002307
Mock, sheet TAS2R4, conc. 0,01 mM
  Δ F/F: -0.0004971
Mock, sheet TAS2R4, conc. 0,1 mM
  Δ F/F: -0.0007383
Mock, sheet TAS2R4, conc. 0,03 mM
  Δ F/F: -0.0008538
Mock, sheet TAS2R4, conc. 0,3 mM
  Δ F/F: 3.213e-5
Mock, sheet TAS2R4, conc. 0,001 mM
  Δ F/F: -0.0002133
Mock, sheet TAS2R4, conc. 0,003 mM
  Δ F/F: -6.081e-5
[1]
  Δ F/F: -0.01698
Mock, sheet TAS2R14, conc. 0,1 mM
  Δ F/F: -0.02625
[2]
  Δ F/F: -0.01883
Mock, sheet TAS2R14, conc. 0,3 mM
  Δ F/F: -0.03707
[3]
  Δ F/F: -0.0212
Mock, sheet TAS2R14, conc. 1 mM
  Δ F/F: -0.05126
[4]
  Δ F/F: -0.01715
Mock, sheet TAS2R46, conc. 0,01 mM
  Δ F/F: -0.02275
Mock, sheet TAS2R46, conc. 0,1 mM
  Δ F/F: -0.03044
Mock, sheet TAS2R46, conc. 0,03 mM
  Δ F/F: -0.02768
Mock, sheet TAS2R46, conc. 0,3 mM
  Δ F/F: -0.0463
Mock, sheet TAS2R46, conc. 0,001 mM
  Δ F/F: -0.02143
Mock, sheet TAS2R46, conc. 1 mM
  Δ F/F: -0.07983
Mock, sheet TAS2R46, conc. 0,003 mM
  Δ F/F: -0.02717
Mock, sheet Tas2r105, conc. 0,01 mM
  Δ F/F: -0.01859
Mock, sheet Tas2r105, conc. 0,1 mM
  Δ F/F: -0.0309
Mock, sheet Tas2r105, conc. 0,03 mM
  Δ F/F: -0.02007
Mock, sheet Tas2r105, conc. 0,3 mM
  Δ F/F: -0.05122
Mock, sheet Tas2r105, conc. 0,001 mM
  Δ F/F: -0.01558
Mock, sheet Tas2r105, conc. 1 mM
  Δ F/F: -0.09069
Mock, sheet Tas2r105, conc. 0,003 mM
  Δ F/F: -0.01717
Mock, sheet Tas2r108, conc. 0,01 mM
  Δ F/F: -0.01889
Mock, sheet Tas2r108, conc. 0,1 mM
  Δ F/F: -0.02753
Mock, sheet Tas2r108, conc. 0,03 mM
  Δ F/F: -0.02185
Mock, sheet Tas2r108, conc. 0,3 mM
  Δ F/F: -0.04768
Mock, sheet Tas2r108, conc. 0,001 mM
  Δ F/F: -0.0151
Mock, sheet Tas2r108, conc. 1 mM
  Δ F/F: -0.06489
Mock, sheet Tas2r108, conc. 0,003 mM
  Δ F/F: -0.01714
Mock, sheet Tas2r117, conc. 0,01 mM
  Δ F/F: -0.001257
Mock, sheet Tas2r117, conc. 0,1 mM
  Δ F/F: -0.001605
Mock, sheet Tas2r117, conc. 0,03 mM
  Δ F/F: -0.001376
Mock, sheet Tas2r117, conc. 0,3 mM
  Δ F/F: 0.0005119
Mock, sheet Tas2r117, conc. 0,0003 mM
  Δ F/F: -0.001061
Mock, sheet Tas2r117, conc. 0,001 mM
  Δ F/F: -0.001339
Mock, sheet Tas2r117, conc. 0,003 mM
  Δ F/F: -0.001948
[5]
  Δ F/F: -0.001476
conc. 0,1 mM, Mock (sheet TAS2R1)
  Δ F/F: -0.002206
conc. 0,03 mM, Mock (sheet TAS2R1)
  Δ F/F: -0.001334
conc. 0,3 mM, Mock (sheet TAS2R1)
  Δ F/F: 0.00174
[6]
  Δ F/F: -0.0005627
[7]
  Δ F/F: 0.0001343

## C[C@H](CCC(=O)O)[C@H]1CC[C@H]2[C@@H]3[C@H](O)C[C@@H]4C[C@H](O)CC[C@]4(C)[C@H]3CC[C@]12C [Chenodeoxycholic Acid, chenodeoxycholic acid]
[1]
  Δ F/F: -0.007814
[2]
  Δ F/F: -0.004111
Mock, sheet TAS2R14, conc. 0,00003 mM
  Δ F/F: -0.01383
Mock, sheet TAS2R14, conc. 0,0001 mM
  Δ F/F: -0.0179
Mock, sheet TAS2R14, conc. 0,0003 mM
  Δ F/F: -0.01292
[3]
  Δ F/F: -0.005111
[4]
  Δ F/F: -0.006729
[5]
  Δ F/F: -0.001385
conc. 0,00003 mM, Mock (sheet TAS2R1)
  Δ F/F: -0.0006042
conc. 0,0001 mM, Mock (sheet TAS2R1)
  Δ F/F: -0.001709
conc. 0,0003 mM, Mock (sheet TAS2R1)
  Δ F/F: -0.001427
[6]
  Δ F/F: -0.001629
[7]
  Δ F/F: -0.001467
